Test results: patent publication US5077288A, “4-fluorobenzoic compounds with 5-HT2 - and α1 -antagonistic activities” (Adir et Compagnie, priority 1989, dated 1991)
Structures can show the parent of a compound that is named as a salt. Where two headings read alike, the source gives them in different places.

Assays:
[1] = target: T1, 5-HT2 (Rattus norvegicus, UniProt P14842); assay: 5-HT2 antagonism: inhibition of hypertensive response to 5-hydroxytryptamine; assay type: in vivo, rat (male Sprague-Dawley); details: iv, 10 min, i.v., cumulative doses, 5-hydroxytryptamine 100 μg/kg i.v., prazosin pretreatment, read-out: ID50, dose inhibiting the hypertensive response by 50%
T1 construct: from tissue; host or cells: whole anaesthetised male Sprague-Dawley rat in vivo (vasculature; arterial blood pressure recorded)
T1 sequence (P14842 whole entry): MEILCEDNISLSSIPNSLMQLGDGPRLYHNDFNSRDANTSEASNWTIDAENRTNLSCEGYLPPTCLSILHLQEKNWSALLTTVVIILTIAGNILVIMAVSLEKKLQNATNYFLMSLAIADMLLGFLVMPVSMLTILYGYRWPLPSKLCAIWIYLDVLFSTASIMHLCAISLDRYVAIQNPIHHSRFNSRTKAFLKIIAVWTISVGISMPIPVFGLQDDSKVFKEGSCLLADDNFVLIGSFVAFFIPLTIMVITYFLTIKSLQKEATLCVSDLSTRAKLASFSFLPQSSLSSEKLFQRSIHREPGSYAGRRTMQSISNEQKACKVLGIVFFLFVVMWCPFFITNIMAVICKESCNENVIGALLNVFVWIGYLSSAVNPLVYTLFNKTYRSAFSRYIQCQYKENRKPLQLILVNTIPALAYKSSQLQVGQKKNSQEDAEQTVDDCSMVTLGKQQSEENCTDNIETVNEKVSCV
Protocol: Male Sprague-Dawley rats (350-400 g) are anesthetized i.p. with pentobarbital (45 mg/kg). The trachea is cannulated and the animals are subjected to artificial respiration. The vagus nerves are sectioned. A catheter is placed in a carotid artery to record the arterial blood pressure. A second catheter is placed in the vein of the penis and is used for the injections. The animals' temperature is taken and is maintained at 37° C. The rats are pretreated with d-tubocurarine (1 mg/kg i.v.) an prazosin (1 mg/kg i.v.). 5-Hydroxytryptamine is injected i.v. at a dose of 100 μg/kg twice, separated by an interval of 10 minutes, so as to determine the rise in the systolic arterial blood pressure of each rat 10 minutes later, the compounds of the invention are injected at the lowest dose and injection of 5-hydroxytryptamine is performed again 10 minutes later. 3 or 4 cumulative doses of the compounds of the invention are tested in the same manner. The percentages of the hypertensive response which are obtained at the different doses are calculated in order to determine the ID50, the dose inhibiting the hypertensive response by 50%.

[2] = system: 5-HTP; assay: 5-HTP antagonism: forepaw treading, flat body posture and head twitches induced by 5-hydroxytryptophan; assay type: in vivo, rat (female Wistar); details: Rattus norvegicus
Protocol: 4 Female Wistar rats (270±30 g), fasted for approximately 24 hours, are used. At the beginning of the test, they are administered the "control" solution or solutions of 5-hydroxytryptophan at a dose of 320 mg/kg. The animals are then placed under observation in transparent cages. Three parameters are assessed in the study: "forepaw treading", "flat body posture" and "head twitches". "Forepaw treading" corresponds to a pedalling motion of the forelimbs. This parameter is measured 80 minutes after the administration of 1,5-hydroxytryptophan and during a ten-minute observation period. This time is divided into 5- second periods and, if a movement is observed in this period, a score of 1 is assigned, the maximum score being […] for the ten minutes of observation and for each animal. The parameter "head twitches" relates to the number of twitches of the head of the animals observed during 10 minutes. This parameter is assessed 90 minutes after the administration of 1,5-hydroxytryptophan and during a 10- minute period. "Flat body posture" corresponds to a flattening of the body which lasts for more than 10 minutes. This parameter is assessed throughout the period of observation of the animals.

[3] = system: α1 receptor; details: in words; cited from earlier work
[4] = sc, read-out: ED50 HT (head twitches)
[5] = sc, subcutaneously, 5-hydroxytryptophan 320 mg/kg, Table IV, read-out: ED50 FBP (flat body posture)
[6] = sc, subcutaneously, 5-hydroxytryptophan 320 mg/kg, Table IV, read-out: ED50 FPT (forepaw treading)

Compound | ED50 [1] [µg/kg] | ED50 [2, 4] [mg/kg] | ED50 [2, 5] [mg/kg] | ED50 [2, 6] [mg/kg] | ED50 ([2]; read-out: ED50 HT (head twitches)) [mg/kg] | ED50 ([2]; Table V, route not given, 5-hydroxytryptophan 320 mg/kg, read-out: ED50 FBP (flat body posture)) [mg/kg] | ED50 ([2]; Table V, route not given, 5-hydroxytryptophan 320 mg/kg, read-out: ED50 FPT (forepaw treading)) [mg/kg] | α1 antagonist activity [3]
Cc1nc2c(C#N)ncn2c(O)c1CCN1CCC(C(=O)c2ccc(F)cc2)CC1 [EXAMPLE 1, 8-Cyano-3-{2-[4-(4-fluorobenzoyl)piperidino]ethyl}-4-hydroxy-2-methylimidazo[l,5-a]pyrimidine hydrochloride] | 4.5 | > 40 | 0.04 | 40 |  |  |  | 
Cl.O=C(c1ccc(F)cc1)C1CCN(CCCN2C(=O)CN(Cc3ccccc3F)CC2=O)CC1 [EXAMPLE 2, 1-{3-[4-(4-Fluorobenzoyl)piperidino]propyl}-4-(2-fluorobenzyl) piperazine 2,6-dione hydrochloride] | 14 | 5 | 0.31 | 10 |  |  |  | 
Cl.O=C(c1ccc(F)cc1)C1CCN(CCCN2C(=O)CN(Cc3ccccn3)CC2=O)CC1 [EXAMPLE 3, 1-{3-[4-(4-Fluorobenzoyl)piperidino]propyl}-4-(2-pyridylmethyl) piperazine 2,6-dione hydrochloride] |  | 5 | 0.31 | 1.25 |  |  |  | 
Cl.O=C(c1ccc(F)cc1)C1CCN(CCCCN2C(=O)CN(Cc3ccccc3F)CC2=O)CC1 [EXAMPLE 4, 1-{4-[4-(4-Fluorobenzoyl)piperidino]butyl}-4-(2-fluorobenzyl) piperazine 2,6-dione hydrochloride] |  |  | 10 | 5 |  |  |  | 
O=C(CC1CCN(CCCN2C(=O)CN(Cc3ccccc3F)CC2=O)C1)c1ccc(F)cc1.O=C(O)C(O)C(O)C(=O)O (stereo not shown) [EXAMPLE 5, 4-(2-Fluorobenzyl)-1-{3-[3-(4-fluorophenacyl)-1-pyrrolidinyl]propyl}piperazine 2,6-dione tartrate] |  | > 10 | 0.31 | 10 |  |  |  | 
O=C(CC1CCCN(CCCN2C(=O)CN(Cc3ccccc3F)CC2=O)C1)c1ccc(F)cc1 (stereo not shown) [EXAMPLE 6, 4-(2-Fluorobenzyl)-1-{3-[3-4-fluorophenacyl)piperidino]propyl)}piperazine 2,6-dione ditartrate] | 3.7 |  | 1.25 | 2.5 |  |  |  | 
Cl.Cl.O=C(c1ccc(F)cc1)C1CCN(CCCN2CCN(c3ncccn3)CC2)CC1 [EXAMPLE 7, 1-{3-[4-(4-Fluorobenzoyl)piperidino]propyl}-4-(2-pyrimidinyl) -piperazine dihydrochloride] |  | > 10 | 1.25 | 1.25 |  |  |  | 
Cc1nc2c(C(N)=O)ncn2c(O)c1CCN1CCC(C(=O)c2ccc(F)cc2)CC1 [EXAMPLE 8, 8-Carbamoyl-3-{2-[4-(4-fluorobenzoyl)piperidino]-ethyl}-4-hydroxy-2-methylimidazol[1,5-a]pyrimidine hydrochloride] | 18 |  |  |  | > 10 | 0.63 | 10 | 
Cc1nc2c(C(N)=O)ncn2c(O)c1CCN1CCC(CC(=O)c2ccc(F)cc2)C1.Cl (stereo not shown) [EXAMPLE 9, 8-Carbamoyl-3-{2-[3-(4-fluorophenacyl)-1-pyrrolidinyl]ethyl}-4-hydroxy-2-methylimidazo[1,5-a]pyrimidine hydrochloride] | 10 |  |  |  |  |  |  | 
O=C(CC1CCN(CCn2c(=O)[nH]c3ccccc3c2=O)C1)c1ccc(F)cc1 (stereo not shown) [EXAMPLE 10, 2,4-Dioxo-3-{2-[3-(4-fluorophenacyl)-1-pyrrolidinyl]ethyl}-1,2,3,4-tetrahydrocuinazoline hydrochloride] | 5.4 | 2.5 | 0.16 | 0.31 |  |  |  | 
Cc1cccc(CN2CC(=O)N(CCCN3CCC(C(=O)c4ccc(F)cc4)CC3)C(=O)C2)c1.Cl [EXAMPLE 15, 1-{3-[4-(4-Fluorobenzoyl)piperidino]propyl}-4-(3-methylbenzyl) piperazine 2,6-dione hydrochloride] |  | 5 | 2.5 | 10 |  |  |  | 
COc1cccc(CN2CC(=O)N(CCCN3CCC(C(=O)c4ccc(F)cc4)CC3)C(=O)C2)c1.Cl [EXAMPLE 18, 1-{3-[4-(4-Fluorobenzoyl)piperidino]propyl}-4-(3-methoxybenzyl) piperazine 2,6-dione hydrochloride] |  |  | 2.5 | 5 |  |  |  | 
Cl.Cl.O=C(c1ccc(F)cc1)C1CCN(CCN2CCN(c3ncccn3)CC2)CC1 [EXAMPLE 21, 4-{2-[4-(4-Fluorobenzoyl)piperidino]ethyl}-1-(2-pyrimidinyl) piperazine dihydrochloride] |  | 1.25 | 0.63 | 2.5 |  |  |  | 
O=C(c1ccc(F)cc1)C1CCN(CCn2c(=O)[nH]c3ccccc3c2=O)CC1 [KETANSERIN] |  |  |  |  |  |  |  | devoid of α1 antagonist activity
